Entries after “also recorded” stand apart in the source; their conditions may differ.
What was measured:
[1] = test system: EEF4 (TSC2+/+) cells; assay: S6K and 4EBP1 phosphorylation in EEF4 (TSC2+/+) fibroblasts; type: cell-based
[2] = test system: intracellular ATP levels; assay: Intracellular ATP levels and AMP/ATP ratio; type: cell-based; conditions: 25 mM
[3] = test system: AMPK and TSC2 interaction; assay: Co-immunoprecipitation of endogenous AMPK and TSC2; type: cell-based, human; conditions: HEK293
Description: (§1) HEK293 cells were seeded and maintained in Dulbecco's modified Eagle's medium (DMEM) containing 10% fetal bovine serum (FBS). Transfection was performed in serum-free conditions using Lipofectamine reagent (Invitrogen, Carlsbad, Calif.) in accordance with the manufacturer's instructions. In brief, 4 h after transfection, the cells were recovered in DMEM containing 10% FBS for 16 h and then starved for 16-24 h. Cells were then lysed in lysis buffer (10 mM Tris-HCl at pH 7.5, 100 mM sodium chloride, 1% NP-40, 1% Triton X-100, 50 mM sodium fluoride, 2 mM EDTA, 1 mM phenyl methylsulphonyl fluoride, 10 μg ml^−1 leupeptin and 10 μg ml^−1 aprotinine) and immunoprecipitated with the indicated antibodies and protein G-Sepharose beads. Immunocomplexes were analyzed by SDS-polyacrylamide gel electrophoresis (PAGE).

[4] = test system: Akt phosphorylation; assay: Immunoblot of Akt phosphorylation in HEK293 cells; type: cell-based, human; conditions: 25 mM 2-DG
Description: as §1

[5] = test system: AMPK; conditions: Corton et al.; cited from earlier work
[6] = test system: TSC2; assay: TSC2/TSC1 phosphorylation in transfected HEK293 cells (mobility shift, 32P labelling, two-dimensional phosphopeptide mapping); type: cell-based, human
Description: as §1
HEK293 cells were cotransfected with HA-tagged TSC2, Myc-tagged TSC1 and the indicated plasmids. Cells were phosphate- and serum-starved for 4 h before incubation with 0.25 mCi ml^−1 32P-orthophosphate (ICN) for 4 h.
Cells were washed once with ice-cold PBS and lysed. HA-tagged TSC2 was immunoprecipitated, resolved by SDS-PAGE and transferred to a PVDF membrane. Phosphorylated TSC2 was visualized by autoradiography and phosphopeptide mapping was then performed. In brief, the phosphorylated TSC2 bands were excised, fixed in methanol and incubated in 500 μl of 0.5% polyvinylpyrrolidone-40 dissolved in 100 mM acetic acid for 30 min at 37° C. The sample were then digested with 20 μg of TPCK-treated trypsin (Sigma) at 37° C. in 75 mM ammonium bicarbonate buffer at pH 8.0 containing 5% acetonitrile. After digestion, samples were dried under vacuum and suspended in 10 μl of water. Samples were spotted onto a cellulose plate and first dimensional electrophoresis was performed using 1% ammonium bicarbonate buffer at pH 8.9. The plates were separated by chromatography in the second dimension in chromatography buffer (n-butanol:pyridine:acetic acid:water; 20:24:6:30). The plates were dried and phosphopeptides were visualized by autoradiography.

[7] = test system: phosphorylation of S6K, S6, 4EBP1 and mTOR; assay: Immunoblot of S6K, S6, 4EBP1 and mTOR phosphorylation in HEK293 cells under energy depletion; type: cell-based, human
Description: as §1

[8] = test system: AMPK; assay: Immunoblot of AMPK T172 phosphorylation (AMPK activation); type: cell-based; conditions: 25 mM
Description: as §1

[9] = test system: acetyl CoA carboxylase (ACC) and eukaryote elongation factor 2 (eEF2); assay: Phosphorylation of the AMPK substrates ACC and eEF2; type: cell-based
[10] = test system: S6K and 4EBP1; conditions: cited from earlier work
[11] = test system: eukaryotic elongation factor 2 (eEF2); conditions: Horman et al.; cited from earlier work
[12] = test system: EEF8 (TSC2−/−) cells; assay: S6K and 4EBP1 phosphorylation in EEF8 (TSC2-/-) fibroblasts; type: cell-based
[13] = test system: HEK293 cells; assay: Cell size of HEK293 cells by FACS; type: cell-based, human; conditions: 12.5 mM 2-DG or 20 nM rapamycin, 72 hours
Description: FIGS. 17a-17b show TSC2 plays roles for cell size control in response to energy starvation. […] HEK293 cells were cultured in the presence of 12.5 mM 2DG, TSC2 RNAi, or 20 nM rapamycin for 72 hours. Cells were harvested and FACS analysis was performed to determine cell size. The X-axis indicates relative cell size. Cell size distribution curve of the control, as indicated by the gray curve, is included in each panel for comparison purposes. […] Experiments are similar to those in panel A.

For `O=CC[C@@H](O)[C@H](O)[C@H](O)CO` [2-DG, 2-deoxy-glucose], the 4EBP1 phosphorylation [1] was “inhibition of phosphorylation of 4EBP1”, the AMP/ATP ratio [2] was “increase; also recorded: increases the AMP/ATP ratio” and the ATP levels [2] was “statistically significant reduction; also recorded: decreases intracellular ATP levels”. The “interaction between endogenous AMPK and TSC2 (co-immunoprecipitation)” value [3] was “interact preferentially with AMPK following 2-DG stimulation; also recorded: enhanced; also recorded: enhances the interaction between TSC2 and AMPK; also recorded: stimulates the interaction”, the Akt phosphorylation [4] was “had little effect” and the AMPK activation [5] was “activate AMPK”. For the same compound, the “mobility of TSC1” value [6] was “did not alter the mobility of TSC1”, the “mobility shift of TSC2” value ([6]; 2-DG treatment) was “mobility shift is due to phosphorylation” and the “TSC2 phosphorylation (in vivo labeling, two dimensional phosphopeptide mapping)” value ([6]; 25 and 40 mM) was “enhanced phosphorylation of several peptides; also recorded: induce TSC2 phosphorylation on multiple spots in vivo”. For the same compound, the “phosphorylation of S6K on T389” value ([7]; 25 mM) was “effectively inhibited; also recorded: dephosphorylation”, the “phosphorylation of S6 and 4EBP1” value ([7]; 25 mM) was “dephosphorylation” and the “phosphorylation of mTOR S2448” value ([7]; 25 mM) was “inhibited; also recorded: dephosphorylation”. For the same compound, the “S6K phosphorylation in TSC2 RNAi knockdown cells” value ([7]; HEK293, TSC2 RNAi) was “blocked in TSC2 knockdown cells, but not in the control cells; also recorded: knockdown of TSC2 by RNA interference blocks the 2-DG response”, the “phosphorylation of S6K and 4EBP1” value ([7]; depletion of cellular ATP) was “caused a dephosphorylation of S6K and 4EBP1” and the “T172 phosphorylation in AMPK” value [8] was “dramatic increase of T172 phosphorylation; also recorded: induces phosphorylation of AMPK”. For the same compound, the “AMPK activation and S6K dephosphorylation as a function of treatment time” value ([8]; time course) was “rapid AMPK activation and concomitant dephosphorylation of S6K”, the “phosphorylation of ACC and eEF2” value [9] was 2-DG-induced phosphorylation of ACC and eEF2 and the “S6K and 4EBP1 phosphorylation” value ([10]; 20 to 100 mM, Dennis et al., 2001) was “inhibition of S6K and 4EBP1 phosphorylation”. The S6K activity ([10]; Kimura et al., Krause et al.) was “inhibit S6K activity”, the “phosphorylation of eEF2” value [11] was “increase phosphorylation” and the “S6K and 4EBP1 phosphorylation” value ([12]; EEF8, TSC2 T1227A/S1345A mutant expressing cells) was “less responsive to 2-DG treatment”. The “S6K and 4EBP1 phosphorylation” value ([12]; EEF8, vector infected cells) was “caused little decrease”, the “S6K and 4EBP1 phosphorylation” value ([12]; EEF8, wild type TSC2 expressing cells) was “significantly decreased” and the cell size [13] was “significantly decreased cell size; also recorded: decreases cell size”. The cell size ([13]; listed as 2DG) was “decreases cell size”.

— US20080207671A1, “Diagnosis and treatment of diseases arising from defects in the tuberous sclerosis pathway” (The Regents of the University of Michigan, priority 2006, published 2008)
